Tests used:
[1] = target: human BACE1 (Homo sapiens, UniProt P56817); experiment: BACE1 fluorescent kinetic assay (cleavage of peptide substrate WABC-6); format: biochemical; settings: 10 nM enzyme, 25 μM substrate WABC-6, pH 4.5, room temperature
Method: Evaluation of BACE1 Binding Affinity of Test Compounds
Fluorescent Kinetic Assays
Dilution and mixing steps: total reaction volume: 100 μL
100 μM substrate dilution in 1×PBS was prepared, and
Fluorescence Readings: Readings at λex 320 nm and λem 420 nm are taken every 40 sec for 30 min at room temperature and the linear slope for substrate cleavage rate (vi) determined.

human BACE1, sequence (P56817 46-501): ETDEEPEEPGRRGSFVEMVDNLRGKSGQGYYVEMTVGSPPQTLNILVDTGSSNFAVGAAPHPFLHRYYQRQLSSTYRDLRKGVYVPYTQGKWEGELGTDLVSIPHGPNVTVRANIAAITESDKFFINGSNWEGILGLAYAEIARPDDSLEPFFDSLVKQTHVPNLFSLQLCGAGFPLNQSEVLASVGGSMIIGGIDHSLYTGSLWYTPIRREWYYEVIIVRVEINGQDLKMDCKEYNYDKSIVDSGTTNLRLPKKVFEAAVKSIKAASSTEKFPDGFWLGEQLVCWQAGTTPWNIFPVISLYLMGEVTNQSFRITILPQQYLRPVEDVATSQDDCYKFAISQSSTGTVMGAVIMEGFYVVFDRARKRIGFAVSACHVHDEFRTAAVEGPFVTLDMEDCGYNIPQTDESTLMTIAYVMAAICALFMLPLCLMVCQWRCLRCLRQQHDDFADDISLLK

Molecule | IC50 ([1]; Activity Table, Examples 1-108) [nM] | melting point [°C] | IC50 ([1]; Examples 109-141) [nM]
C=CCCC(F)c1cccc(C2(c3ccc(OC(F)F)cc3)N=C(N)N(C)C2=O)c1 (centres unmarked) [Example 12, 2-Amino-5-(4-difluoromethoxy-phenyl)-5-[3-(1-fluoro-pent-4-enyl)-phenyl]-3-methyl-3,5-dihydro-imidazol-4-one] | < 100 | 50 to 55 | 
C=CCCC(F)c1cc(C2(c3ccc(OC(F)F)cc3)N=C(N)N(C)C2=O)ccc1F (centres unmarked) [Example 13, 2-Amino-5-(4-difluoromethoxy-phenyl)-5-[4-fluoro-3-(1-fluoro-pent-4-enyl)-phenyl]-3-methyl-3,5-dihydro-imidazol-4-one] | 110 to 1000 | 50 to 55 | 
CN1C(=O)C(c2ccc(OC(F)F)cc2)(c2ccc(F)c(CCCC#N)c2)N=C1N (centres unmarked) [Example 14, 4-{5-[2-Amino-4-(4-difluoromethoxy-phenyl)-1-methyl-5-oxo-4,5-dihydro-1H-imidazol-4-yl]-2-fluoro-phenyl}-butyronitrile] | < 100 | 65 to 70 | 
C=CCC(F)c1cccc(C2(c3ccc(OC(F)F)cc3)N=C(N)N(C)C2=O)c1 (centres unmarked) [Example 57, 2-amino-5-[4-(difluoromethoxy)phenyl]-5-[3-(1-fluorobut-3-en-1-yl)phenyl]-3-methyl-3,5-dihydro-4H-imidazol-4-one] | 110 to 1000 | 49 to 51 | 
CN1C(=O)C(c2ccc(OC(F)F)cc2)(c2cccc(OCCCF)c2)N=C1N (centres unmarked) [Example 82, 2-Amino-5-[4-(difluoromethoxy)phenyl]-5-[3-(3-fluoropropox-1-yl)phenyl]-3-methyl-3,5-dihydro-4H-imidazol-4-one] | < 100 | 161 to 162 | 
CN1C(=O)C(c2ccc(OC(F)F)cc2)(c2cccc(CCCCC#N)c2)N=C1N (centres unmarked) [Example 83, 5-(3-{2-Amino-4-[4-(difluoromethoxy)phenyl]-1-methyl-5-oxo-4,5-dihydro-1H-imidazol-4-yl}phenyl)pentanenitrile] | < 100 | 65 | 
CCOC/C=C(\C)c1cccc(C2(c3ccc(OC(F)F)cc3)N=C(N)N(C)C2=O)c1 (centres unmarked) [Example 109, 2-amino-5-[4-(difluoromethoxy)phenyl]-5-{3-[(1E)-3-ethoxy-1-methylprop-1-en-1-yl]phenyl}-3-methyl-3,5-dihydro-4H-imidazol-4-one] |  |  | 110 to 1000
COCCC(C)c1cccc(C2(c3ccc(OC(F)F)cc3)N=C(N)N(C)C2=O)c1 (centres unmarked) [Example 111, 2-amino-5-[4-(difluoromethoxy)phenyl]-5-[3-(3-methoxy-1-methylpropyl)phenyl]-3-methyl-3,5-dihydro-4H-imidazol-4-one] |  |  | > 1000
CCOCCC(C)c1cccc(C2(c3ccc(OC(F)F)cc3)N=C(N)N(C)C2=O)c1 (centres unmarked) [Example 112, 2-amino-5-[4-(difluoromethoxy)phenyl]-5-[3-(3-ethoxy-1-methylpropyl)phenyl]-3-methyl-3,5-dihydro-4H-imidazol-4-one] |  |  | > 1000
CN1C(=O)C(c2ccc(OC(F)F)cc2)(c2cccc(NC(=O)c3ccc4c(c3)CCO4)c2)N=C1N (centres unmarked) [Example 117, N-(3-{2-amino-4-[4-(difluoromethoxy)phenyl]-1-methyl-5-oxo-4,5-dihydro-1H-imidazol-4-yl}phenyl)-2,3-dihydro-1-benzofuran-5-carboxamide] |  |  | < 100
C=CCCCCc1cccc(C2(c3ccc(OC(F)F)cc3)N=C(N)N(C)C2=O)c1 (centres unmarked) [Example 121, 2-amino-5-[4-(difluoromethoxy)phenyl]-5-(3-hex-5-en-I-ylphenyl)-3-methyl-3,5dihydro-4H-imidazol-4-one] |  |  | < 100
C=CCCCCc1cccc(C2(c3ccc(OC(F)F)cc3)N=C(N)N(C)C2=O)c1 (centres unmarked) [Example 125, 2-amino-5-[4-(difluoromethoxy)phenyl]-5-(3-hex-5-en-I-ylphenyl)-3-methyl-3,5-dihydro-4H-imidazol-4-one] |  |  | < 100
CCCCCCc1cccc(C2(c3ccc(OC(F)F)cc3)N=C(N)N(C)C2=O)c1 (centres unmarked) [Example 126, 2-amino-5-[4-(difluoromethoxy)phenyl]-5-(3-hexylphenyl)-3-methyl-3,5-dihydro-4Himidazol-4-one] |  |  | 110 to 1000
COCCCC/C=C/c1cccc([C@@]2(c3ccc(OC(F)F)cc3)N=C(N)N(C)C2=O)c1 [Example 129, (R,E)-2-amino-4-(4-(difluoromethoxy)phenyl)-4-(3-(6-methoxyhex-1-enyl)phenyl)-1-methyl-1H-imidazol-5(4H)-one] |  |  | < 100
CN1C(=O)[C@@](c2ccc(OC(F)F)cc2)(c2ccc(F)c(/C=C/CCF)c2)N=C1N [Example 140, (5R)-2-amino-5-[4-(difluoromethoxy)phenyl]-5-{4-fluoro-3-[(1E)-4-fluorobut-1-en1-yl]phenyl}-3-methyl-3,5-dihydro-4H-imidazol-4-one] |  |  | > 1000
CN1C(=O)[C@](c2ccc(OC(F)F)cc2)(c2ccc(F)c(/C=C/CCF)c2)N=C1N [Example 141, (5S)-2-amino-5-[4-(difluoromethoxy)phenyl]-5-{4-fluoro-3-[(1E)-4-fluorobut-1-en-1-yl]phenyl}-3-methyl-3,5-dihydro-4H-imidazol-4-one] |  |  | < 100
methyl[3-(3-{2-amino-4-[4-(difluoromethoxy)phenyl]-1-methyl-5-oxo-4,5-dihydro-1H-imidazol-4-yl}phenyl)-1-methoxycyclobutyl]acetate-methyl[3-(3-{2-amino-4-[4-(difluoromethoxy)phenyl]-1-methyl-5-oxo-4,5-dihydro-1H-imidazol-4-yl}phenyl)cyclobutylidene]acetate (3:1) [Example 55] | 110 to 1000 |  | 

The next lines start with the values.

IC50 ([1]; Activity Table, Examples 1-108) [nM] | melting point [°C] | IC50 ([1]; Examples 109-141) [nM] | Molecule
110 to 1000 | 70 |  | Cc1cc(C2(c3ccc(OC(F)F)cc3)N=C(N)N(C)C2=O)ccc1F (centres unmarked) [Example 15, 2-Amino-5-(4-difluoromethoxy-phenyl)-5-(4-fluoro-3-methyl-phenyl)-3-methyl-3,5-dihydro-imidazol-4-one]
> 1000 | 104 to 105 |  | COc1ccc(C2(c3ccc(OC(F)F)cc3)N=C(N)N(C)C2=O)cc1C#N (centres unmarked) [Example 16, 5-[2-Amino-4-(4-difluoromethoxy-phenyl)-1-methyl-5-oxo-4,5-dihydro-1H-imidazol-4-yl]-2-methoxy-benzonitrile]
110 to 1000 | 70 to 73 |  | CN1C(=O)C(c2ccc(OC(F)F)cc2)(c2ccc(F)c(CF)c2)N=C1N (centres unmarked) [Example 17, 2-Amino-5-(4-difluoromethoxy-phenyl)-5-(4-fluoro-3-fluoromethyl-phenyl)-3-methyl-3,5-dihydro-imidazol-4-one]
> 1000 | 85 to 90 |  | Cc1ccccc1C1(c2ccc(OC(F)F)cc2)N=C(N)N(C)C1=O (centres unmarked) [Example 18, 2-Amino-5-(4-difluoromethoxy-phenyl)-3-methyl-5-o-tolyl-3,5-dihydro-imidazol-4-one]
> 1000 |  |  | CN1C(=O)[C@](c2ccc(OC(F)F)cc2)(c2ccc(F)c(C#CCF)c2)N=C1N [Example 108, (5S)-2-amino-5-[4-(difluoromethoxy)phenyl]-5-[4-fluoro-3-(3-fluoroprop-1-yn-1-yl)phenyl]-3-methyl-3,5-dihydro-4H-imidazol-4-one]
 |  | 110 to 1000 | C=CC[C@H](C)c1cccc(C2(c3ccc(OC(F)F)cc3)N=C(N)N(C)C2=O)c1 (stereo partly drawn) [Example 110, 2-amino-5-[4-(difluoromethoxy)phenyl]-3-methyl-5-{3-[(1S)-1-methylbut-3-en-1-yl]phenyl}-3,5-dihydro-4H-imidazol-4-one]
 |  | > 1000 | Cc1cc2cc(C3(c4ccc(OC(F)F)cc4)N=C(N)N(C)C3=O)ccc2o1 (centres unmarked) [Example 113, 2-amino-5-[4-(difluoromethoxy)phenyl]-3-methyl-5-(2-methyl-1-benzofuran-5-yl)-3,5-dihydro-4H-imidazol-4-one]
 |  | > 1000 | CN1C(=O)C(c2ccc(OC(F)F)cc2)(c2cccc(N)c2)N=C1N (centres unmarked) [Example 115, 2-amino-5-(3-aminophenyl)-5-[4-(difluoromethoxy)phenyl]-3-methyl-3,5-dihydro-4H-imidazol-4-one]
 |  | 110 to 1000 | CC(=O)Nc1cccc(C2(c3ccc(OC(F)F)cc3)N=C(N)N(C)C2=O)c1 (centres unmarked) [Example 116, N-(3-{2-amino-4-[4-(difluoromethoxy)phenyl]-1-methyl-5-oxo-4,5-dihydro-1H-imidazol-4-yl}phenyl)acetamide]
 |  | 110 to 1000 | CC(C)Oc1cc(C2(c3ccc(OC(F)F)cc3)N=C(N)N(C)C2=O)ccc1F (centres unmarked) [Example 136, 2-amino-5-[4-(difluoromethoxy)phenyl]-5-(4-fluoro-3-isopropoxyphenyl)-3-methyl-3,5-dihydro-4H-imidazol-4-one]
 |  | < 100 | CC(C)C#Cc1cc(C2(c3ccc(OC(F)F)cc3)N=C(N)N(C)C2=O)ccc1F (centres unmarked) [Example 138, 2-amino-5-[4-(difluoromethoxy)phenyl]-5-[4-fluoro-3-(3-methylbut-1-yn-1-yl)phenyl]-3-methyl-3,5-dihydro-4H-imidazol-4-one]
